From paper PMC3700072, “Synthesis, Anti-Inflammatory, and Ulcerogenicity Studies of Novel Substituted and Fused Pyrazolo[3,4-d]pyrimidin-4-ones” (Scientia Pharmaceutica, 2013)
Where “and” joins values, the source holds several entries; their conditions need not be identical. Equal values may be shown once.

Tests used:
[1] = test system: carrageenan-induced rat paw edema; assay: carrageenan-induced rat paw edema test; format: in vivo; set-up: Mean increase in edema weight ± SEM: unit not given here; conditions: rats, 10 mg/kg intraperitoneally, 4 h after carrageenan; for inhibition in vivo at 10 mg/kg / change in vivo at 10 mg/kg: Rattus norvegicus, ip; for inhibition in vivo at 10 mg/kg: 4 h, read-out: %Inhibition of Paw edema from control group (edema reduction); for change in vivo at 10 mg/kg / Mean increase in edema weight ± SEM: N = 6; for change in vivo at 10 mg/kg: read-out: Mean % increase in edema weight ± SEM; for % Activity relative to indomethacine: indomethacin = 100
Method: The in vivo anti-inflammatory effects of the newly synthesized pyrazolopyrimidine derivatives were assessed by utilizing the functional model of carrageenan-induced rat paw edema using indomethacin as the reference drug. Mean changes and the percent increase in paw edema weight of animals pretreated with the tested compounds after 4 h from the induction of inflammation were measured, together with the percent inhibition of induced rat paw edema by the tested compounds. The anti-inflammatory activity (relative potency) of the tested compounds relative to that of indomethacin was also calculated (Table 1) (Fig. 2).
The in vivo carrageenan-induced rat paw edema model of inflammation was used to evaluate the anti-inflammatory properties of the newly synthesized compounds according to the previously reported Winter et al. method.
Adult male albino rats weighing 100–120 g (obtained from the animal house of the department of Physiology, Faculty of Medicine, Alexandria University) were used throughout the work. Animals were randomly divided into groups of six rats each. They were kept in an animal house under standard conditions of light and temperature with free access to food and water ad libitum and allowed to be accustomed to their environment for two days before testing.
Indomethacin, used as a reference standard (Khahira for Pharmaceutical and Chemical Industry, Cairo, Egypt), and the test compounds were dissolved in DMSO and were injected intraperitoneally at a dose level of 10 mg/kg body weight. Control animals, on the other hand, were intraperitoneally injected with appropriate volume of DMSO only. After one hour of the above treatment, an inflammatory edema in the right hind paw of all animals was induced by subcutaneous injection of 0.05 ml of freshly prepared solution of 1% carrageenan (λ-Carrageenan Sigma–Aldrich Corp. St. Louis, MO, USA) in sterile normal saline (0.9%), into the subplantar tissue of the paw. An equal volume of saline was injected to the left hind paw and served as internal control for the degree of inflammation in the right hind paw.
Four hours after carrageenan injection, animals were decapitated and both the right and left hind paws were excised at a standard point and weighed. The difference in weight from edema between right and left paws was taken as a measure of the degree of inflammation for each animal. The mean increase in weight of the carrageenan-injected paw over the other paw in each group was measured and the percent increase of edema was calculated. The anti-inflammatory efficacy of the tested compounds was assessed by comparing the change in paw weight in the treated animals with that in control animals (treated with DMSO only) and expressed as a percent inhibition of the edema (percent protection against inflammation), calculated according to the following equation: % Inhibition of edema=(1-Wt/Wc)×100 where Wt is the mean increase in paw weight in rats treated with the test compounds and Wc is the mean increase in paw weight in the control group. The anti-inflammatory activity of the test compounds relative to that of indomethacin was also determined (Table 2).
In the anti-inflammatory study, data obtained were expressed as the mean ± standard error (SEM). Statistical significance was determined by comparing the values of the test compounds and the standard with those obtained from the control group of animals using One-way ANOVA with Dunnett’s post-test using the GraphPad Prism version 3.00 for Windows (GraphPad Software, San Diego California USA, www.graphpad.com). The difference in results was considered significant if P < 0.001.

gastric mucosa of rats = assay: gastric ulcerogenic effect (Meshali's method, ulcer index by Robert's method); format: in vivo, rat; set-up: key to Ulcer index: ulcer index = %incidence/10 + avg no. of ulcers + avg severity (0–4); conditions: for % ulceration in the population of test animals: oral 10 mg/kg; for Average No. of ulcer / % Incidence/10 / % Ulcerogenicity relative to indomethacin / Average severity / Ulcer index: oral 10 mg/kg on three days; for % Incidence/10: 5 animals per group; for % Ulcerogenicity relative to indomethacin: indomethacin = 100, 10 mg/kg; for Average severity: score 0 to 4; for Ulcer index: sum of the 3 figures
Method: The ulcer index was calculated according to Robert’s method.
Adult male albino rats weighing between 100 and 120 g were used. Animals were divided into groups of five animals each. Rats were fasted 20 h before drug administration. Water was given ad libitum. The control group received the vehicle (1% gum acacia) orally. Other groups received indomethacin or test compounds orally in a dose of 10 mg/kg body weight suspended in 1% gum acacia. Rats were fasted for 2 h, allowed to feed for 2 h, then fasted for another 20 h. Rats were given another two doses on the second and third days. On the fourth day, rats were sacrificed by diethyl ether; the stomach of each rat was removed, opened along the greater curvature, and rinsed with cold 0.9% saline. The stomach was stretched, by pins, on a corkboard and inspected with a 3x magnifying lens for any evidence of mucosal damage. The ulcer index was calculated according to Robert’s method. The number of mucosal damage (red spots) was counted and their severity (ulcerogenic severity) was graded from 0 to 4 according to the following score assignment:
The following figures were calculated: • –– % Incidence/10 = [number of rats showing ulcer of any grade divided by total number of rats in the group × 100]/10. • –– Average number of ulcers: number of ulcers in the group/total number of rats in the group. • –– Average severity: Σ [each ulcer multiplied by its score of severity]/number of ulcers in the group. • Ulcer index = the sum of the 3 figures. • Results are tabulated in Table 2.

cyclooxygenase-1 = molecular target: cyclooxygenase-1; set-up: method as in PMID 15044055; conditions: intact cell assays; cited from earlier work
cyclooxygenase-2 = molecular target: cyclooxygenase-2; set-up: method as in PMID 15044055; conditions: intact cell assays; cited from earlier work

melting point | SMILES | inhibition in vivo at 10 mg/kg [1] | change in vivo at 10 mg/kg [1] | Mean increase in edema weight ± SEM [1] | % Activity relative to indomethacine [1] | % ulceration in the population of test animals (gastric mucosa of rats) | Average No. of ulcer (gastric mucosa of rats) | % Incidence/10 (gastric mucosa of rats) | % Ulcerogenicity relative to indomethacin (gastric mucosa of rats) | Average severity (gastric mucosa of rats) | Ulcer index (gastric mucosa of rats) | IC50 (cyclooxygenase-1) | IC50 (cyclooxygenase-2)
258 to 260 °C | Cc1nc2c(cnn2-c2ccccc2)c(=O)n1N=c1scc(-c2ccccc2)n1-c1ccccc1 [Compound 11a, 5-[(3,4-Diphenyl-1,3-thiazol-2(3H)-ylidene)amino]-6-methyl-1-phenyl-1,5-dihydro-4H-pyrazolo[3,4-d]pyrimidin-4-one] | 53.5% | 10.5 ± 0.468% | 0.73 ± 0.021 | 78.50% | 40–60% | 1.6 | 6 | 52.02% | 1.38 | 8.98 |  | 
248 to 252 °C | Cc1nc2c(cnn2-c2ccccc2)c(=O)n1N=c1scc(-c2ccc(Br)cc2)n1-c1ccccc1 [Compound 11b, 5-{[4-(4-Bromophenyl)-3-phenyl-1,3-thiazol-2(3H)-ylidene]amino}-6-methyl-1-phenyl-1,5-dihydro-4H-pyrazolo[3,4-d]pyrimidin-4-one] | 57.3% | 8.42 ± 0.482% | 0.67 ± 0.049 | 84.11% | 80% | 1.2 | 8 |  | 1.33 | 10.53 |  | 
258 to 259 °C | Cc1nc2c(cnn2-c2ccccc2)c(=O)n1N=c1scc(-c2ccc(Cl)cc2)n1-c1ccccc1 [Compound 11c, 5-{[4-(4-Chlorophenyl)-3-phenyl-1,3-thiazol-2(3H)-ylidene]amino}-6-methyl-1-phenyl-1,5-dihydro-4H-pyrazolo[3,4-d]pyrimidin-4-one] | 54.1% | 10.8 ± 0.457% | 0.72 ± 0.031 | 79.44% | 40–60% | 1.6 | 6 | 53.47% | 1.63 | 9.23 |  | 
267 to 269 °C | Cc1nc2c(cnn2-c2ccccc2)c(=O)n1N=c1scc(-c2ccccc2)n1-c1ccc(Cl)cc1 [Compound 11d, 5-{[3-(4-Chlorophenyl)-4-phenyl-1,3-thiazol-2(3H)-ylidene]amino}-6-methyl-1-phenyl-1,5-dihydro-4H-pyrazolo[3,4-d]pyrimidin-4-one] | 56.7% | 8.73 ± 0.868% | 0.68 ± 0.065 | 83.18% | 80% | 1.0 | 8 | 59.09% | 1.20 | 10.20 |  | 
261 to 263 °C | Cc1nc2c(cnn2-c2ccccc2)c(=O)n1N=c1scc(-c2ccc(Br)cc2)n1-c1ccc(Cl)cc1 [Compound 11e, 5-{[4-(4-Bromophenyl)-3-(4-chlorophenyl)-1,3-thiazol-2(3H)-ylidene]amino}-6-methyl-1-phenyl-1,5-dihydro-4H-pyrazolo[3,4-d]pyrimidin-4-one] | 66.9% | 8.74 ± 0.929% | 0.52 ± 0.031 | 98.14% | 20% | 0.8 | 2 | 26% and 26.36% | 1.75 | 4.55 |  | 
272 to 275 °C | Cc1nc2c(cnn2-c2ccccc2)c(=O)n1N=c1scc(-c2ccc(Cl)cc2)n1-c1ccc(Cl)cc1 [Compound 11f, 5-{[3,4-Bis(4-chlorophenyl)-1,3-thiazol-2(3H)-ylidene]amino}-6-methyl-1-phenyl-1,5-dihydro-4H-pyrazolo[3,4-d]pyrimidin-4-one] | 65% | 9.29 ± 0.961% | 0.55 ± 0.043 | 95.33% | 40–60% | 1.6 | 4 | 41.13% | 1.5 | 7.10 |  | 

Further lines, the molecule ahead of its results:

SMILES | melting point | inhibition in vivo at 10 mg/kg [1] | change in vivo at 10 mg/kg [1] | Mean increase in edema weight ± SEM [1] | % Activity relative to indomethacine [1] | % ulceration in the population of test animals (gastric mucosa of rats) | Average No. of ulcer (gastric mucosa of rats) | % Incidence/10 (gastric mucosa of rats) | % Ulcerogenicity relative to indomethacin (gastric mucosa of rats) | Average severity (gastric mucosa of rats) | Ulcer index (gastric mucosa of rats) | IC50 (cyclooxygenase-1) | IC50 (cyclooxygenase-2)
Cc1nc2c(cnn2-c2ccccc2)c(=O)n1N=C1SCC(=O)N1c1ccc(Cl)cc1 [Compound 10b, 5-{[3-(4-Chlorophenyl)-4-oxo-1,3-thiazolidin-2-ylidene]amino}-6-methyl-1-phenyl-1,5-dihydro-4H-pyrazolo[3,4-d]pyrimidin-4-one] | 264 to 267 °C | 58.6% | 8.31 ± 0.43% | 0.65 ± 0.022 | 85.99% | 40–60% | 0.8 | 6 | 46.63% | 1.25 | 8.05 |  | 
O=c1c2cnn(-c3ccccc3)c2nc2cc3c(nn12)CCCC3 [Compound 17, 1-Phenyl-7,8,9,10-tetrahydropyrazolo[3′,4′:4,5]pyrimido[1,2-b]cinnolin-4(1H)-one] | 142 to 145 °C | 29.9% | 15.8 ± 0.756% | 1.10 ± 0.052 | 43.93% |  |  |  |  |  |  |  | 
CN(C)c1nc(NCc2ccccc2)c2cnn(C(C)(C)C)c2n1 [II] |  |  |  |  |  |  |  |  |  |  |  | 59.6 nM | 0.9 nM
